From patent publication US9125879B2, “Composition containing a quinoa extract for dermatological use” (LABORATOIRES EXPANSCIENCE, priority 2006, dated 2015)

Assays:
Assay type in all cases: cell-based
keratinocytes = experiment: Proliferation of keratinocytes by the MTT method
Protocol: c. Study of the Proliferation of Keratinocytes by the MTT Method
On D0, the keratinocytes are sown in a KGM2 medium day1, the cells are treated with trans-retinoic acid (ATRA) at 1 μM or quinoa peptides with 0.05% and 0.1% DM for 24 and 48 hours. At the end of the treatment, cell viability is quantified by an MTT test: after 3 hours of contact with MTT, the formed formazan crystals are solubilized by DMSO and the optical density, proportional to the amount of metabolically active cells therefore live cells, is read at 570 nm against the blank (wells without any cells).

collagen I = experiment: Genic expression of collagen I in fibroblasts (real time quantitative PCR); conditions: 5 ng/mL, 48 hours
Description: (§1) b. Study of the Effect of Quinoa Peptides on the Expression of Genes Coding for Collagen I and Collagen III and Elastin by RT-PCR
(§2) b.1. Principle of Real Time Quantitative PCR:
(§3) Real time quantitative PCR or QRT-PCR (Quantitative Real Time Polymerase Chain Reaction) is a molecular biology method, which allows specific and quantitative measurement of the expression of genes of interest by amplification. Quantification is based on tracking the amplification of genes in real time by using as a reporter system, SYBR Green technology: a molecule with fluorescent properties which is inserted inside the double strand DNA. PCR takes place in a succession of temperature cycles according to 3 steps: • Denaturation: separation of 2 DNA strands. • Hybridization: recognition of a DNA sequence corresponding to a target gene by means of specific primers. • Extension: of the sequence of interest by a action of a polymerase.
(§4) DNA amounts are compared in the exponential part, moment during which the increase in the DNA amount is proportional to the initial matrix amount.
(§5) On D0, the fibroblasts were sown on 6-well plates in RPMI medium added with 10% SVF. On D1, the fibroblasts were treated with TGF β1 at 5 ng/mL or the quinoa oil concentrate with 0.005% and 0.01% DM in RPMI medium with 1% SVF for 48 hours. At the end of the treatment of the cells, the total […] were extracted (extraction kit RNeasy kit MiniKit; Qiagen) and then assayed quantitatively in minichips by means of an Experion system (Experion RNA StdSens kit; Biorad). Total RNAs are then back-transcribed into cDNA (iScript cDNA Synthesis kit; Biorad). Finally the neo-synthesized cDNAs relative to the genes of interest (collagen I, collagen III, elastin) or to reference genes (HPRT, GAPDH, YWHAZ, beta actin=normalizers) were selectively amplified with real time PCR (iQ5, Biorad) by using specific primers of the target sequences.
(§6) The expression of the reference genes is analyzed in the same samples as those for which expression of the genes of interest is evaluated in order to normalize the results and to make sure that they are actually the results of the effect of the treatment by quinoa oil concentrate.
(§7) b.3. Analysis of the Results:
(§8) The variation in the number of copies of the genes of interest during the treatment is then calculated according to the following formula: DDCt=control DCt−treatment DCt.
(§9) Finally, the relative amount or the expression level of the genes of interest, normalized by the expression level of the reference genes in the untreated and treated samples is obtained by the formula: QR=2DDCt

collagen III = experiment: Genic expression of collagen III in fibroblasts (real time quantitative PCR); conditions: 5 ng/mL, 48 hours
Description: as §1, §2, §3, §4, §5, §6, §7, §8, §9

elastin = experiment: Genic expression of elastin in fibroblasts (real time quantitative PCR); conditions: 5 ng/mL, 48 hours
Description: as §1, §2, §3, §4, §5, §6, §7, §8, §9

α-3 chain of laminin 5 = experiment: Genic expression of the α-3 chain of laminin 5 in keratinocytes (RT-PCR); conditions: 5 ng/ml, 48 hours
Protocol: (§10) a. Study of the Effect of Quinoa Peptides on the Expression of Genes Coding for Laminin 5 and PPM-9 by RT-PCR • Principle of real time quantitative PCR: cf. Example 4 • Procedure:
(§11) On day 0, the keratinocytes were sown in 24-well plates in a KGM-2 medium. On D1, the cells were treated with TGFβ1 at 5 ng/mL or quinoa peptides with 0.05 and 0.1% DM for 48 hours. At the end of the treatment of the cells, the total RNAs were extracted (RNeasy MiniKit extraction kit; Qiagen) and then quantitatively assayed in minichips by means of the Experion system (Experion RNA StdSens kit; Biorad). The total RNAs were then backtranscribed into cDNA (iScript cDNA Synthesis kit; Biorad). Finally, the neo-synthesized cDNAs relative to the gene of interest (genes coding for the 3 chains making up laminin 5: […] and MMP-9) or to the reference genes (HPRT, GAPDH, YWHEZ, beta actin=normalizers) were selectively amplified by real time PCR (iQ5, Biorad) by using specific primers of the target sequences.

β-3 chain of laminin 5 = experiment: Genic expression of the β-3 chain of laminin 5 in keratinocytes (RT-PCR); conditions: 5 ng/ml, 48 hours
Protocol: as §10, §11

γ-2 chain of laminin 5 = experiment: Genic expression of the γ-2 chain of laminin 5 in keratinocytes (RT-PCR); conditions: 5 ng/ml, 48 hours
Protocol: as §10, §11

MMP-9 [1] = experiment: Genic expression of MMP-9 in keratinocytes (RT-PCR); conditions: 5 ng/ml, 48 hours
Protocol: as §10, §11

MMP-9 [2] = experiment: Dosage of MMP-9 protein secreted by keratinocytes (ELISA); conditions: 5 ng/ml, supernatants of keratinocytes
Protocol: d. Dosage of MMP-9 Secreted by Keratinocytes.
The keratinocytes were sown in 24-well plates; after 24 hours in incubation at 37° C., with 5% CO2, the cells were treated with quinoa peptides with 0.05% and 0.01% DM. TGFβ tested at 5 ng/mL was used as a positive control. After 48 and 72 hours of treatment, the amount of MMP-9 secreted by the cells was assayed in the culture supernatant by means of an ELISA kit (R&D Systems), according to the procedure recommended by the supplier. In parallel, the amount of living cells per well was determined by a colorimetric neutral red test: optical density OD, proportional to the amount of living cells, is read at 570 nm.
The amount of MMP-9 is expressed in living cells: (ng/mL)/OD570 (optical density at 570 nm) MTT.

KGF = experiment: Dosage of KGF secreted by fibroblasts (ELISA); conditions: for % A (increase) / Amount of KGF: 5 ng/ml, supernatants of fibroblasts
Protocol: e. Dosage of KGF Secreted by Fibroblasts
The fibroblasts were sown in a 24-well plate in RPMI at 1% SVF; after 24 hours of incubation at 37° C., with […], the cells were treated with quinoa peptides with 0.05% and 0.01% DM. IL1α (Sigma) at 100 ng/mL was used as a positive control. After 24 and 48 hours of treatment, the amount of KGF salted out by the fibroblasts was assayed with an ELISA kit (R&D Systems), according to the procedure recommended by the supplier. In parallel, the amount of living cells per well was determined by a colorimetric neutral red test: optical density OD, proportional to the amount of living cells, is read at 570 nm. In parallel, the amount of living cells per well was determined by an MTT colorimetric test: optical density OD, proportional to the amount of living cells, is read at 570 nm.
The amount of KGF is expressed by the living cells: pg/mL/OD570 MTT.

CC1=C(/C=C/C(C)=C/C=C/C(C)=C/C(=O)O)C(C)(C)CCC1 [ATRA, trans-retinoic acid]
Mean OD570 (MTT) (keratinocytes; 1 μM): 1.361
% of proliferation (keratinocytes; 1 μM, negative control = 100): 136%
proliferation rate induced (keratinocytes; positive control): +36%

TGFβ: growth factor used as a positive control at 5 ng/mL
% of induction (collagen I): 87%
Mean dCt (collagen I): −3.2
QR (collagen I): 1.87
ddCt (collagen I): 0.9
% of induction (collagen III): 427%
Mean dCt (collagen III): 2.51
QR (collagen III): 5.27
ddCt (collagen III): 2.4
% of induction (elastin): 435%
QR (elastin): 5.35
dCt (elastin): 2.16
ddCt (elastin): 2.4
% of induction (α-3 chain of laminin 5): 1193%
Mean dCt (α-3 chain of laminin 5): −0.944
QR (α-3 chain of laminin 5): 12.93
ddCt (α-3 chain of laminin 5): 3.69
QR (α-3 chain of laminin 5; listed as TGF-β1): ~12
% of induction (β-3 chain of laminin 5): 420%
Mean dCt (β-3 chain of laminin 5): −0.944
QR (β-3 chain of laminin 5): 5.20
ddCt (β-3 chain of laminin 5): 2.38
QR (β-3 chain of laminin 5; listed as TGF-β1): ~5
% of induction (γ-2 chain of laminin 5): 1676%
Mean dCt (γ-2 chain of laminin 5): −1.925
QR (γ-2 chain of laminin 5): 17.76
ddCt (γ-2 chain of laminin 5): 4.15
QR (γ-2 chain of laminin 5; listed as TGF-β1): ~17
% of induction (MMP-9 [1]): 807%
Mean dCt (MMP-9 [1]): 3.07
QR (MMP-9 [1]): 8
ddCt (MMP-9 [1]): 3.01
% A (increase) (MMP-9 [2]; treatment 48 h): 372%
Amount of MMP-9 (MMP-9 [2]; treatment 48 h): 11.604 ng/mL/OD neutral red
% A (increase) (MMP-9 [2]; treatment 72 h): 568%
Amount of MMP-9 (MMP-9 [2]; treatment 72 h): 14.746 ng/mL/OD neutral red
% A (increase) (KGF; treatment 24 h): 431%
Amount of KGF (KGF; treatment 24 h): 147.886 pg/mL/OD neutral red
% A (increase) (KGF; treatment 48 h): 336%
Amount of KGF (KGF; treatment 48 h): 352.387 pg/mL/OD neutral red

B1: IL1α: IL1α (Sigma) at 100 ng/mL used as a positive control (protein, UniProt P01583 113-271, looked up)
Interleukin-1 alpha: SAPFSFLSNVKYNFMRIIKYEFILNDALNQSIIRANDQYLTAAALHNLDEAVKFDMGAYKSSKDDAKITVILRISKTQLYVTAQDEDQPVLLKEMPEIPKTITGSETNLLFFWETHGTKNYFTSVAHPNLFIATKQDYWVCLAGGPPSITDFQILENQA
synthesis of KGF by fibroblasts (KGF; positive control, 100 ng/mL): increased
